Laboratory results as given in BindingDB's records for patent US11555039 (Translational Drug Development, 2023).

Target: Rho-associated protein kinase 2 (Homo sapiens, UniProt O75116)
Assay: Kinase Inhibition

Chain of Rho-associated protein kinase 2 (O75116 whole entry): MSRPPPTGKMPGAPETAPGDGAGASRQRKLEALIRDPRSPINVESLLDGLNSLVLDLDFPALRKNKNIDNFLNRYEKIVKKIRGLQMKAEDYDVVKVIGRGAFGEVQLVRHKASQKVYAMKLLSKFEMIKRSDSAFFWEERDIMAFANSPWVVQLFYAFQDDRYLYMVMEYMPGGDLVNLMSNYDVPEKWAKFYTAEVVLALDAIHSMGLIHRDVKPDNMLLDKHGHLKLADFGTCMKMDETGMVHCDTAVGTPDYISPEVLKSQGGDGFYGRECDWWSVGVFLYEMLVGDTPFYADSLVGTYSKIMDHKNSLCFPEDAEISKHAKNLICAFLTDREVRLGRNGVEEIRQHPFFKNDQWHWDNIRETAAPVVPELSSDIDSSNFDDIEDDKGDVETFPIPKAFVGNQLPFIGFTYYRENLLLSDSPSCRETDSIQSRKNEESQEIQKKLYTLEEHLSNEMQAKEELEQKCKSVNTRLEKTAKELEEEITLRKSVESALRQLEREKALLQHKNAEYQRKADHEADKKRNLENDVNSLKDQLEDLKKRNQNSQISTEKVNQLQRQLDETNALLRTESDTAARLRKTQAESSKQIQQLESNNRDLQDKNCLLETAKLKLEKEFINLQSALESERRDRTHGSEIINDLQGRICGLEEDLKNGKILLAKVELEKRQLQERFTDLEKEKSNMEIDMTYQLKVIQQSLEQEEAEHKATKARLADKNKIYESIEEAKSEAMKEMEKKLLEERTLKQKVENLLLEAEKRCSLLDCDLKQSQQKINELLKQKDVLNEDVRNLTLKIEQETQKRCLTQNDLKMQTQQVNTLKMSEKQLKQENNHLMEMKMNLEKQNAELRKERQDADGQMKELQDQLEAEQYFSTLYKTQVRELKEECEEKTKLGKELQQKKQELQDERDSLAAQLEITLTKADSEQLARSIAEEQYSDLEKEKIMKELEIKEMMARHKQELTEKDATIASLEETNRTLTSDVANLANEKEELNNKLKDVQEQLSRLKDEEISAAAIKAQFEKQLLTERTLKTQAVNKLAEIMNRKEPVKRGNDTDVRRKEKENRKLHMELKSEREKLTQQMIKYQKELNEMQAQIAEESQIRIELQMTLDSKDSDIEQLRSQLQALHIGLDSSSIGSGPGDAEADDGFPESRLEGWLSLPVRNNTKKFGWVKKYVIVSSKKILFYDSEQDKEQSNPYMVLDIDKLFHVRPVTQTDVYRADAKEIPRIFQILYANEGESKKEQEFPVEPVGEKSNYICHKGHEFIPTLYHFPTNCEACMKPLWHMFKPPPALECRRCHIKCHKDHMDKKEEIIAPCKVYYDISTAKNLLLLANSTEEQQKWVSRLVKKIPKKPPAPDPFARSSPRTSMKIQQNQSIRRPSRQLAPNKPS

IC50: 0.51 nM
Structure (SMILES): CCOc1ccc(NC(=O)c2cccc([C@@H](CO)NC(=O)c3ccc(-c4ccncc4)cc3)c2)cn1 [US11555039, Compound ID 93]
